Results as given in patent US11345702B1 (Myoforte Therapeutics, Inc., priority 2020, dated 2022).

What was measured:
15-PGDH/HPGD = 15-PGDH/HPGD (Homo sapiens (Human), UniProt P15428); assay: hPGDH inhibitor screening biochemical assay; conditions: read-out: hPGDH: Average IC50
How it was run: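 Ten-point dose-response inhibition of 15-PGDH measured by fluorescence (340/485 nm) after 10 min at room temperature with PGE2 (15 μM) and NAD+ (0.25 mM), following 10 min enzyme (10 nM)–compound pre-incubation at 37 °C. Buffer: 50 mM Tris-HCl pH 7.5, 0.01% Tween 20. Percent inhibition relative to 1% DMSO; four-parameter IC50.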

[1] = Liver microsome stability assay (RLM); format: in vitro ADME; conditions: rat liver microsomes
Method: (§1) A microsomal mixture (microsomes and Kphos buffer) was prepared at a concentration of 1.428 mg/mL in 2 mL tubes. To this microsomal mixture 1.6 μL (1 mM) of test compound and positive control were spiked; from this mixture, 70 μL was transferred to 96 well plate and pre-incubated at 37° C. for 5 min. After pre-incubation, the zero minute time point reaction was stopped using 100 μL of ice-cold acetonitrile containing internal standard and […] (3.33 mM in Kphos buffer) was added. The 45 minute time point reaction was initiated by addition of 30 μL of NADPH (3.33 mM in Kphos buffer) and incubated at 37° C. for 15 and 45 min. Reactions without NADPH and buffer controls (minus NADPH) at 0, 15, and 45 minutes were also incubated to rule out non-NADPH metabolism or chemical instability in the incubation buffer. Incubation reactions were stopped with 100 μL of ice-cold acetonitrile containing internal standard. The plates were centrifuged at 4000 RPM for 15 min and 100 μL aliquots were submitted for analysis by LC-MS/MS. (Verapamil in human liver microsomes (HLM) and rat liver microsomes (RLM) was used as positive controls. Imipramine in mouse liver microsomes (MLM) was used as a positive control.) Samples were monitored for parent compound disappearance in MRM mode (multiple reaction monitoring) using LC-MS/MS. The peak area ratios of analyte versus internal standard were used to calculate the % remaining at the end of 45 minutes in the presence of NADPH.

[2] = Liver microsome stability assay (MLM); format: in vitro ADME; conditions: mouse liver microsomes
Method: as §1

15-PGDH/HPGD, sequence (P15428 whole entry): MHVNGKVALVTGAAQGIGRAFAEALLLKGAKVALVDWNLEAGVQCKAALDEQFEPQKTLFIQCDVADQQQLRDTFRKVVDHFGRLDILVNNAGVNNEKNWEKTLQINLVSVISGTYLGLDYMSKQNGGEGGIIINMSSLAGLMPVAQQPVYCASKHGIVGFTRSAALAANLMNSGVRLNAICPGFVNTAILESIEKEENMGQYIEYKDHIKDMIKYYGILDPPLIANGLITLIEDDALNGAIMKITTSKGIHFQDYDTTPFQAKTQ

Row | IC50 (15-PGDH/HPGD) | RLM + NADPH (% remaining at 45 min) [1] | MLM + NADPH (% remaining at 45 min) [2] | SMILES
1 | 100 to 1000 nM | 60% |  | COc1ccc(-n2c(CCC(F)(F)F)nc3cc(C(=O)N4CCCCC4)cnc32)cc1 [MF-DH-268]
2 | < 100 nM | 0% |  | CCC(CC)n1cnc2cc(C(=O)N3CCCCC3)ccc21 [MF-DH-237]
3 | < 100 nM | 51% |  | COc1ccc(-n2nnc3cc(C(=O)N4CCC(F)CC4)ccc32)cc1 [MF-DH-242, (4-fluoropiperidin-1-yl)(1-(4-methoxyphenyl)-1H-benzo[d][1,2,3]triazol-5-yl)methanone]
4 | 100 to 1000 nM | 46% |  | COc1ccc(-n2nc(Cl)c3cc(C(=O)N4CCC(F)CC4)ccc32)cc1 [MF-DH-246]
5 | < 100 nM | 34% |  | O=C(c1cnc2c(c1)ncn2-c1ccc(F)c(F)c1)N1CCCCC1 [MF-DH-217]
6 | 100 to 1000 nM | 69% |  | O=C(c1cnc2c(c1)ncn2-c1cccc(OC(F)F)c1)N1CCC(F)CC1 [MF-DH-228]
7 | 100 to 1000 nM | 34% |  | O=C(c1cnc2c(c1)ncn2-c1ccc(OC(F)(F)F)cc1)N1CCC(F)CC1 [MF-DH-218]
8 | 100 to 1000 nM | 48% |  | O=C(c1cnc2c(c1)ncn2-c1cccc(OC(F)(F)F)c1)N1CCCCC1 [MF-DH-227]
9 | 100 to 1000 nM | 39% |  | O=C(c1cnc2c(c1)ncn2-c1cccc(OC(F)F)c1)N1CCCCC1 [MF-DH-229]
10 | < 100 nM | 34% |  | COc1ccc(-n2nnc3cc(C(=O)N4CCCCC4)ccc32)cc1 [MF-DH-243, (1-(4-methoxyphenyl)-1H-benzo[d][1,2,3]triazol-5-yl)(piperidin-1-yl)methanone]
11 | < 100 nM | 23% |  | COc1ccc(-n2ccc3cc(C(=O)N4CCC(F)CC4)ccc32)cc1 [MF-DH-189]
12 | < 100 nM | 40% |  | CCOc1ccc(-n2cnc3cc(C(=O)N4CCCCC4)cnc32)cc1 [MF-DH-225]
13 | 100 to 1000 nM | 64% |  | O=C(c1cnc2c(c1)ncn2-c1ccc(F)c(F)c1)N1CCC(F)CC1 [MF-DH-216]
14 | 100 to 1000 nM | 67% |  | COCCc1nc2cc(C(=O)N3CCCCC3)cnc2n1-c1ccc(OC)cc1 [MF-DH-267]
15 | < 100 nM | 78% |  | COc1ccc(-n2c(C)nc3cc(C(=O)N4CCCCC4)cnc32)cc1 [MF-DH-205]
16 | ≥ 1000 nM | 48% |  | CCC(CC)n1cnc2cc(C(=O)N3CCC(F)CC3)cnc21 [MF-DH-201]
17 | < 100 nM | 26% |  | O=C(c1cnc2c(c1)ncn2-c1ccc(OC(F)(F)F)cc1)N1CCCCC1 [MF-DH-219]
18 | < 100 nM | 45% |  | O=C(c1cnc2c(c1)ncn2-c1ccc(F)cc1)N1CCCCC1 [MF-DH-215]
19 | < 100 nM | 44% |  | COc1ccc(-n2ccc3c(C)c(C(=O)N4CCCCC4)cnc32)cc1 [MF-DH-287]
20 | < 100 nM | 74% |  | O=C(c1cnc2c(c1)ncn2-c1ccc(OC(F)F)cc1)N1CCCCC1 [MF-DH-223]
21 | < 100 nM | 29% |  | COc1ccc(-n2cc(C)c3cc(C(=O)N4CCC(F)CC4)ccc32)cc1 [MF-DH-190, (4-fluoropiperidin-1-yl)(1-(4-methoxyphenyl)-3-methyl-1H-indol-5-yl)methanone]

Row | IC50 (15-PGDH/HPGD) | RLM + NADPH (% remaining at 45 min) [1] | MLM + NADPH (% remaining at 45 min) [2] | SMILES
22 | 100 to 1000 nM | 22% |  | COc1ccc(-n2nc(Cl)c3cc(C(=O)N4CCCCC4)ccc32)cc1 [MF-DH-247]
23 | < 100 nM |  | 87% | NCCNC(=O)c1ccc(-n2ccc3cc(C(=O)N4CCC(F)(F)CC4)cnc32)cc1 [MF-DH-411, N-(2-aminoethyl)-4-(5-(4,4-difluoropiperidine-1-carbonyl)-1H-pyrrolo[2,3-b]pyridin-1-yl)benzamide]
24 | < 100 nM |  | 25% | CCC(CC)NC(=O)c1ccc(-n2ccc3cc(C(=O)N4CCC(F)(F)CC4)cnc32)cn1 [MF-DH-437, 5-(5-(4,4-difluoropiperidine-1-carbonyl)-1H-pyrrolo[2,3-b]pyridin-1-yl)-N-(pentan-3-yl) picolinamide]
25 | < 100 nM |  | 15% | O=C(Nc1ccn(C2CC2)n1)c1cccc(-n2ccc3cc(C(=O)N4CCC(F)(F)CC4)cnc32)c1 [MF-DH-499, N-(1-cyclopropyl-1H-pyrazol-3-yl)-3-(5-(4,4-difluoropiperidine-1-carbonyl)-1H-pyrrolo[2,3-b]pyridin-1-yl)benzamide]
26 | < 100 nM |  | 100% | NC(=O)c1ccc(-n2cnc3cc(C(=O)N4CCC(F)(F)CC4)cnc32)cc1 [MF-DH-464]
27 | < 100 nM |  | 38% | CC(C)(C)c1ccc(NC(=O)c2cncc(-n3ccc4cc(C(=O)N5CCC(F)(F)CC5)cnc43)c2)cn1 [MF-DH-520, N-(6-(tert-butyl)pyridin-3-yl)-5-(5-(4,4-difluoropiperidine-1-carbonyl)-1H-pyrrolo[2,3-b]pyridin-1-yl)nicotinamide]
28 | < 100 nM |  | 51% | CCC(CC)NC(=O)c1cncc(-n2ccc3cc(C(=O)N4CCC(F)(F)CC4)cnc32)c1 [MF-DH-407, 5-(5-(4,4-difluoropiperidine-1-carbonyl)-1H-pyrrolo[2,3-b]pyridin-1-yl)-N-(pentan-3-yl)nicotinamide]
29 | < 100 nM |  | 110% | O=C(c1cnc2c(ccn2-c2ccc(-c3nn[nH]n3)cc2)c1)N1CCC(F)(F)CC1 [MF-DH-514, (1-(4-(2H-tetrazol-5-yl)phenyl)-1H-pyrrolo[2,3-b]pyridin-5-yl)(4,4-difluoropiperidin-1-yl)methanone]
30 | < 100 nM |  | 97% | O=C(NC(CO)CO)c1ccc(-n2ccc3cc(C(=O)N4CCC(F)(F)CC4)cnc32)cc1 [MF-DH-412]
31 | < 100 nM |  | 45% | CC(C)(C)C(=O)NCCNC(=O)c1ccc(-n2ccc3cc(C(=O)N4CCC(F)(F)CC4)cnc32)cc1 [MF-DH-403, 4-(5-(4,4-difluoropiperidine-1-carbonyl)-1H-pyrrolo[2,3-b]pyridin-1-yl)-N-(2-pivalamidoethyl)benzamide]
32 | < 100 nM |  | 47% | O=C(c1cnc2c(ccn2-c2cncc(-c3n[nH]c(C4CC4)n3)c2)c1)N1CCC(F)(F)CC1 [MF-DH-517, (1-(5-(5-cyclopropyl-1H-1,2,4-triazol-3-yl)pyridin-3-yl)-1H-pyrrolo[2,3-b]pyridin-5-yl)(4,4-difluoropiperidin-1-yl)methanone]
33 | < 100 nM |  | 84% | CC(C)(O)CNC(=O)c1cc(Cl)cc(-n2ccc3cc(C(=O)N4CCC(F)(F)CC4)cnc32)c1 [MF-DH-521]
34 | < 100 nM |  | 79% | CC(C)(C)NC(=O)c1cncc(-n2ccc3cc(C(=O)N4CCC(F)(F)CC4)cnc32)c1 [MF-DH-448, N-(tert-butyl)-5-(5-(4,4-difluoropiperidine-1-carbonyl)-1H-pyrrolo[2,3-b]pyridin-1-yl)nicotinamide]
35 | < 100 nM |  | 37% | O=C(c1cnc2c(ccn2-c2cc(Cl)cc(C(=O)N3CCS(=O)(=O)CC3)c2)c1)N1CCC(F)(F)CC1
36 | < 100 nM |  | 81% | O=C(NC1CCS(=O)(=O)CC1)c1cc(Cl)cc(-n2ccc3cc(C(=O)N4CCC(F)(F)CC4)cnc32)c1
37 | < 100 nM |  | 6% | N/C(=N\O)c1ccc(-n2ccc3cc(C(=O)N4CCCCC4)cnc32)cc1 [MF-DH-399]
38 | < 100 nM |  | 103% | O=C(c1cnc2c(ccn2-c2cccc(-c3nn[nH]n3)c2)c1)N1CCC(F)(F)CC1 [MF-DH-515, (1-(3-(2H-tetrazol-5-yl)phenyl)-1H-pyrrolo[2,3-b]pyridin-5-yl)(4,4-difluoropiperidin-1-yl)methanone]
39 | < 100 nM |  | 72% | Cc1c(C(=O)N2CCC(F)CC2)cnc2c1ccn2-c1ccc(C#N)cc1 [MF-DH-387, 4-(5-(4-fluoropiperidine-1-carbonyl)-4-methyl-1H-pyrrolo[2,3-b]pyridin-1-yl)benzonitrile]
40 | < 100 nM |  | 97% | O=C(NC1(C(=O)O)CC1)c1ccc(-n2ccc3cc(C(=O)N4CCC(F)(F)CC4)cnc32)cc1 [MF-DH-429]
41 | < 100 nM |  | 86% | CC(C)(C)CNC(=O)c1cncc(-n2ccc3cc(C(=O)N4CCC(F)(F)CC4)cnc32)c1 [MF-DH-405, 5-(5-(4,4-difluoropiperidine-1-carbonyl)-1H-pyrrolo[2,3-b]pyridin-1-yl)-N-neopentylnicotinamide]
